Here are results for six compounds from patent US9169241B2, “Quinolinyloxyphenylsulfonamides” (Max-Planck-Gesellschaft Zur Forderung der Wissenschaften …, priority 2009, dated 2015).

Data set [1] deals with Hs578T. Put plainly: Cell vitality assay (ATP assay, CellTiter-Glo). The settings on record: Homo sapiens, Hs-578T; HS578T cell line, 72 h; Table Ib; read-out: IC50 ATP-Assay HS578T after 72 h. Type of data set: cell-based. Summed up: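 ATP-based luminescence (CellTiter-Glo) after 72 h exposure of 1000 cells/well to seven compound concentrations from 0.195 to 12.5 μM. IC50 defined as concentration reducing ATP to 50% of DMSO control.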

For data set [2], the system named is Hs578T. Put plainly: Wound healing migration assay. Type of data set: cell-based. The settings on record: Homo sapiens, Hs-578T; HS578T cell line; Table Ib. The method in brief: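 Compound exposure at 12.5, 6.25 and 3.125 μM, with DMSO control, on scratch-wounded monolayers (150000 cells/24 well, overnight). Wound closure imaged by microscopy, fixed with crystal violet after 48 h or 72 h depending on cell line; IC50 is the concentration giving 50% wound size between t0 and t48/t72.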

For data set [3], the system named is Hs578T. Put plainly: Matrigel outgrowth assay/branching assay. Type of data set: cell-based. The settings on record: Homo sapiens, Hs-578T; HS578T cell line; Table Ib; read-out: Total branching inhibition in Matrigel HS578T. Summed up: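 Invasive outgrowth into a 3 mg/ml Matrigel gel is judged from images taken after 48, 72 and 96 h of exposure to 3.125, 1.56 or 0.78 μM compound, with DMSO as control. Positive means total inhibition of branching.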

In turn, `COc1ccc2nccc(Oc3ccc(NS(=O)(=O)c4cc(Cl)ccc4Cl)cc3F)c2c1` [Example 203, 2,5-Dichloro-N-[3-fluoro-4-(6-methoxy-quinolin-4-yloxy)-phenyl]-benzenesulfonamide] displayed a melting point of 253 to 255 °C. Moreover, in the data set with Hs578T [1], the IC50 was at most 12.5 µM. Moreover, in the data set on Hs578T [2], the IC50 was at most 12.5 µM. Besides, the IC50 with Hs578T [3] lay in the range of 10 to 25 µM.

In turn, `COc1ccc2nccc(Oc3ccc(NS(=O)(=O)c4c(Cl)cccc4Cl)cc3F)c2c1` [Example 204, 2,6-Dichloro-N-[3-fluoro-4-(6-methoxy-quinolin-4-yloxy)-phenyl]-benzenesulfonamide] yielded a melting point of 219 to 221 °C. Also, the IC50 with Hs578T [1] fell in the range of 12.5 to 50 µM. In addition, the IC50 with Hs578T [2] was 12.5 to 50 µM. Also, the IC50 in the data set with Hs578T [3] was 10 to 25 µM.

Turning to `COc1ccc2nccc(Oc3ccc(NS(=O)(=O)c4ccc5ccccc5c4)cc3F)c2c1` [Example 205, Naphthalene-2-sulfonic acid [3-fluoro-4-(6-methoxy-quinolin-4-yloxy)-phenyl]-amide], the melting point lay within 220 to 222 °C. The IC50 in the data set with Hs578T [1] fell in the range of 12.5 to 50 µM. The compound further gave an IC50 in the data set on Hs578T [2] of 12.5 to 50 µM. Also, the IC50 in the data set with Hs578T [3] was in the range of 10 to 25 µM.

For `COc1ccc2nccc(Oc3ccc(NS(=O)(=O)C4CC4)cc3F)c2c1` [Example 206, Cyclopropanesulfonic acid [3-fluoro-4-(6-methoxy-quinolin-4-yloxy)-phenyl]-amide], the melting point fell in the range of 194 to 196 °C. Also, in the data set on Hs578T [1], the IC50 is 12.5 to 50 µM. The compound further gave an IC50 in the data set on Hs578T [2] of 12.5 to 50 µM. Besides, in the data set on Hs578T [3], the IC50 fell in the range of 10 to 25 µM.

For `COc1cc2c(Oc3ccc(NS(=O)(=O)c4cc(F)ccc4F)cc3F)ccnc2cc1OCCCCOC(C)=O` [Example 211, Acetic acid 4-{4-[4-(2,5-difluoro-benzenesulfonylamino)-2-fluoro-phenoxy]-6-methoxy-quinolin-7-yloxy}-butyl ester], the melting point lay within 165 to 167 °C. Further, the IC50 in the data set with Hs578T [1] is at most 12.5 µM. The same compound came in with an IC50 with Hs578T [2] of at most 12.5 µM. The IC50 in the data set with Hs578T [3] lay within 10 to 25 µM.

As to `COc1cc2c(Oc3ccc(NS(=O)(=O)c4ccccc4C(F)(F)F)cc3F)ccnc2cc1OCCCCOC(C)=O` [Example 212, Acetic acid 4-{4-[2-fluoro-4-(2-trifluoromethyl-benzenesulfonylamino)-phenoxy]-6-methoxy-quinolin-7-yloxy}-butyl ester], the melting point lay in the range of 143 to 145 °C. Also, the IC50 in the data set with Hs578T [1] fell in the range of 12.5 to 50 µM. Moreover, the IC50 in the data set on Hs578T [2] lay in the range of 12.5 to 50 µM. Moreover, the IC50 with Hs578T [3] was 10 to 25 µM.

As usually defined, the melting point is the temperature of the solid-liquid transition.
